Laboratory results from patent publication US20230295212A1 (ROME Therapeutics, Inc., priority 2022, published 2023).
Counter-ions that a name gives are not always drawn.

Key:
human DNA polymerase γ = target: T1, human DNA polymerase γ (Homo sapiens, UniProt P54098); experiment: Homogeneous time-resolved fluorescence human DNA polymerase γ assay; assay type: biochemical; conditions: triphosphates, room temperature 30 minutes
T1 construct: purchased Gentaur
T1 sequence (P54098 1-1239): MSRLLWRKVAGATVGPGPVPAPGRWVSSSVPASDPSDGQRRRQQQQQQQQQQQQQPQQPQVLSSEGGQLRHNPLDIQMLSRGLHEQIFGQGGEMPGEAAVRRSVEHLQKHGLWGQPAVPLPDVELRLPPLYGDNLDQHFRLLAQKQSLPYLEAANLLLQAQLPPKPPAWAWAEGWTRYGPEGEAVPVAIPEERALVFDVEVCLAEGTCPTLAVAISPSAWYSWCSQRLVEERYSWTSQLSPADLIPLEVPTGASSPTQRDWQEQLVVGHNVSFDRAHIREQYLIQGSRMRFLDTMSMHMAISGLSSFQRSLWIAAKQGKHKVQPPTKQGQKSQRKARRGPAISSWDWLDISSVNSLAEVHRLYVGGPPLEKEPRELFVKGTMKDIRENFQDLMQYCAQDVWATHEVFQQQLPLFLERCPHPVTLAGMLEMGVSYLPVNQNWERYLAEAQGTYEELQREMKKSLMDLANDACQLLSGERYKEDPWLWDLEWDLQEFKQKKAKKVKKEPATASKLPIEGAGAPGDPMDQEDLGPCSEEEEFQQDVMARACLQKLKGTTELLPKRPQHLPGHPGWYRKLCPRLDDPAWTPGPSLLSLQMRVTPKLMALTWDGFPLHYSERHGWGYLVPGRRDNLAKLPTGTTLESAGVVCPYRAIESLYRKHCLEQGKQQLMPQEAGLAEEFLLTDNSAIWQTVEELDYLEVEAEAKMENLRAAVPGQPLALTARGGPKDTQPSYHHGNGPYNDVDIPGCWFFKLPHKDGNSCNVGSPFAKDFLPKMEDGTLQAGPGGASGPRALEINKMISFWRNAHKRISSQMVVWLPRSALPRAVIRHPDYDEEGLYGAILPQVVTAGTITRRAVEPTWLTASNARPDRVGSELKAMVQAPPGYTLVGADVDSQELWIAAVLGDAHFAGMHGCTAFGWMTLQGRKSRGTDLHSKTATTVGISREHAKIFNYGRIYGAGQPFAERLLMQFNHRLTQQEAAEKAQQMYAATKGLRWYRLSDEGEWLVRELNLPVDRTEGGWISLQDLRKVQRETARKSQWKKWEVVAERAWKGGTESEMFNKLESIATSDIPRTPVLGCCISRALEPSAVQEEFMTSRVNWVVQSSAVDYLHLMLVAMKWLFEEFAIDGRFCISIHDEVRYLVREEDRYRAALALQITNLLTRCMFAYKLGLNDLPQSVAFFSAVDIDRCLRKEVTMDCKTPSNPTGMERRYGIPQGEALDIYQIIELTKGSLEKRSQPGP
Experimental: Exemplary compounds were tested for ability to inhibit human DNA polymerase γ using a homogeneous time-resolved fluorescence (HTRF) assay. Off-target inhibition of DNA polymerase γ by NRTIs can result in undesired mitochondrial toxicity. Assay procedures and results are described below.
The human DNA polymerase γ homogeneous time-resolved fluorescence (HTRF) assay was performed with recombinant human DNA polymerase γ protein (Gentaur) in a 384-well format. Test compound was serially diluted in water and further diluted in the assay buffer (28 mM Tris-HCl, 14 mM NaCl, 0.56 mM MgCl2, 0.011% Triton X-100, 0.11 mg/ml BSA, 1.1 mM DTT, pH 8.1). The serially diluted compound was mixed with polymerase γ, 10 nM of pre-annealed template/biotin-primer pair (synthesized at Geneway Biotechnology), 100 nM of Fluorescein-12-dCTP fluorescent probe (PerkinElmer), and 10 μM dGTP/dATP/dTTP (ThermoFisher Scientific) in the assay buffer. The template/biotin-primer sequences were as follows:
(§1) After incubating at room temperature for 30 minutes, the detection reagent (5 mM EDTA with streptavidin-terbium cryptate, Cisbio Bioassay) in the PPI buffer (Cisbio Bioassay) was added, and the mixture was incubated at room temperature for 60 minutes. At the end of the incubation, fluorescence was read at ex/em=337/485 nm and ex/em=337/520 nm on an Envision 2104 plate reader (PerkinElmer). The fluorescence ratio at 520/485 nm was used for the calculation. […] The IC50 was calculated by fitting the compound dose inhibition curve with a 4-parameter non-linear regression equation.

[1] = target: T2, LINE1 reverse transcriptase (recombinant MBP-tagged LINE1 protein (238-1061)) (Homo sapiens, UniProt O00370); experiment: Homogeneous time-resolved fluorescence (HTRF) LINE1 RT assay; assay type: biochemical; conditions: triphosphate analogs, LINE1 enzyme 64 ng/well, 25° C. 60 minutes
T2 construct: recombinant MBP-tagged LINE1 protein (238-1061); made in house
Experimental: Exemplary triphosphate analogs were tested for the ability to inhibit LINE1 reverse transcriptase using a homogeneous time-resolved fluorescence (HTRF) assay. Assay procedures and results are described below.
The LINE1 reverse transcriptase homogeneous time-resolved fluorescence (HTRF) assay was performed with recombinant MBP-tagged LINE1 protein (238-1061) (generated and purified according to procedures in Dai L. et al. BMC Biochemistry 2011; 12:18) in a 384-well format. Test compound was serially diluted in DMSO and further diluted in the assay buffer (50 mM Tris-HCl, 50 mM KCl, 10 mM MgCl2, 10 mM DTT, pH 8.1) to achieve a final DMSO concentration of 1%. The serially diluted compound was mixed with 64 ng/well of LINE1 enzyme, 5 nM of pre-annealed template/biotin-primer pair (synthesized at Generay Biotechnology), 10 nM of Fluorescein-12-dCTP fluorescent probe (PerkinElmer), and 1 μM dGTP/dATP/dTTP (ThermoFisher Scientific) in the assay buffer. The template/biotin-primer sequences were as follows:
as §1, with “25° C.” for “room temperature”, “60” for “30”, “(20” for “(5”, “30” for “60”

Row | IC50 (human DNA polymerase γ) | IC50 [1] | SMILES
1 | 200000 to 300000 nM | 430 nM | Nc1nc(=O)n([C@@H]2O[C@](CCl)(COP(=O)(O)OP(=O)(O)OP(=O)(O)O)[C@@H](O)[C@@H]2F)cc1F [Compound 67-TP]
2 | 200000 to 300000 nM | 831 nM | Nc1ccn([C@@H]2O[C@](CCl)(COP(=O)(O)OP(=O)(O)OP(=O)(O)O)[C@@H](O)[C@@H]2F)c(=O)n1 [Compound 40-TP]
3 | 200000 to 300000 nM | 81 nM | C=C[C@]1(COP(=O)(O)OP(=O)(O)OP(=O)(O)O)O[C@@H](n2ccc(N)nc2=O)C[C@@H]1O [Compound 43-TP]

Further lines, the molecule ahead of its results:

Row | SMILES | IC50 (human DNA polymerase γ) | IC50 [1]
4 | C#C[C@]1(COP(=O)(O)OP(=O)(O)OP(=O)(O)O)O[C@@H](n2ccc(N)nc2=O)[C@@H](F)[C@@H]1O [Compound 35-TP] | 200000 to 300000 nM | 13.7 nM
5 | Nc1ccn([C@H]2C[C@H](O)[C@@](CCl)(COP(=O)(O)OP(=O)(O)OP(=O)(O)O)O2)c(=O)n1 [Compound 2-TP] | ≤ 50000 nM | 47.5 nM
6 | CC[C@]1(COP(=O)(O)OP(=O)(O)OP(=O)(O)O)O[C@@H](n2ccc(N)nc2=O)C[C@@H]1O [44-TP] | > 300000 nM | 108 nM
7 | Nc1nc(=O)n([C@H]2C[C@H](O)[C@@](CCl)(COP(=O)(O)OP(=O)(O)OP(=O)(O)O)O2)cc1F [Compound 14-TP, ((2R,3S,5R)-5-(4-amino-5-fluoro-2-oxopyrimidin-1(2H)-yl)-2-(chloromethyl)-3-hydroxytetrahydrofuran-2-yl)methyl tetrahydrogen triphosphate TEA Salt] | 50000 to 100000 nM | 272 nM
